Assay [1] deals with T1, Integrin alpha-IIb/beta-3 (Homo sapiens) (UniProt P05106+P08514). As to the kind of experiment: Inhibition of Fibrinogen Receptor at 50 uM. The format is protein-complex assay.
For assay [2], the target named is T1, Integrin alpha-IIb/beta-3 (Homo sapiens). As to the kind of experiment: Percent inhibition of platelet aggregation at 20 uM. The format is functional.
Assay [3] shares this target. Nature of the assay: Percent inhibition of platelet aggregation at 50 uM. The format is functional.

One may read the inhibition as the change of the read-out against control, counted positive when it falls. Higher therefore signals a strong effect. Take `CC(=O)N[C@@H](CCCCN)C(=O)N1CCCC(C(=O)NCC(=O)O)C1` (some centres undefined): the inhibition in assay [1] was 24%.

Turning to `CC(C)(C)OC(=O)NC(CCCCN)C(=O)NC12CC3CC(CC(NCC(=O)O)(C3)C1)C2` (centres undefined), the inhibition in assay [2] is 40%; in assay [1], 44%. `CC(=O)N[C@@H](CCCCN)C(=O)N1CCCC(C(=O)NCCC(=O)O)C1` (some centres undefined): the inhibition in assay [3] worked out at 86%.

The record behind these values is ChEMBL document CHEMBL1127720, “Adamantane and Nipecotic Acid Derivatives as Novel -Turn Mimics” (Bioorg Med Chem Lett, 1994).
